Test results taken from ChEMBL document CHEMBL4507299, “Data for DCP probe PF-04554878” (2021).

Assays:
[1] = target: Atypical kinase COQ8A, mitochondrial (Homo sapiens) (UniProt Q8NI60)
[2] = target: RAC-alpha serine/threonine-protein kinase (Homo sapiens) (UniProt P31749)
[3] = system: ALK tyrosine kinase receptor (Homo sapiens), Q9UM73 [C1156Y]
[4] = target: Mitotic checkpoint serine/threonine-protein kinase BUB1 (Homo sapiens) (UniProt O43683)
[5] = target: Calcium/calmodulin-dependent protein kinase type II subunit gamma (Homo sapiens) (UniProt Q13555)
Calcium/calmodulin-dependent protein kinase type II subunit gamma (Homo sapiens), sequence (Q13555 whole entry): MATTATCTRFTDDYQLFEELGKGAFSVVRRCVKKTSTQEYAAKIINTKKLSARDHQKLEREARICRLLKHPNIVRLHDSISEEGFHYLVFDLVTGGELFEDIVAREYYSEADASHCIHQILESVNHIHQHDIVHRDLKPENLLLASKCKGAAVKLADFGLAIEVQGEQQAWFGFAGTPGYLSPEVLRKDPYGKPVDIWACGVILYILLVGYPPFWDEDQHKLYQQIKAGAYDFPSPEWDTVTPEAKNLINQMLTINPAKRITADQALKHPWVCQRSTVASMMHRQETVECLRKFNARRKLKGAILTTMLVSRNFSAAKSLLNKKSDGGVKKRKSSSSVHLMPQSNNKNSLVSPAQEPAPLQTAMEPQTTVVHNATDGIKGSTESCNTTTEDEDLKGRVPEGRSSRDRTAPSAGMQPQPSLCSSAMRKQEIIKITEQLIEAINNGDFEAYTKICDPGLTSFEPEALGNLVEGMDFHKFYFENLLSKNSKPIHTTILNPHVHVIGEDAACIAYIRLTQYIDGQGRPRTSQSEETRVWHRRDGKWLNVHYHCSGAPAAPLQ

[6] = target: Dual specificity protein kinase CLK2 (Homo sapiens) (UniProt P49760)
[7] = target: Casein kinase I isoform gamma-3 (Homo sapiens) (UniProt Q9Y6M4)
[8] = target: Serine/threonine-protein kinase DCLK1 (Homo sapiens) (UniProt O15075)
[9] = target: Mitogen-activated protein kinase kinase kinase 12 (Homo sapiens) (UniProt Q12852)
[10] = target: Dual specificity tyrosine-phosphorylation-regulated kinase 1B (Homo sapiens) (UniProt Q9Y463)
[11] = system: Epidermal growth factor receptor (Homo sapiens), P00533 [UNDEFINED MUTATION]
[12] = target: Eukaryotic translation initiation factor 2-alpha kinase 1 (Homo sapiens) (UniProt Q9BQI3)
[13] = target: Ephrin type-B receptor 1 (Homo sapiens) (UniProt P54762)
[14] = target: Mitogen-activated protein kinase 7 (Homo sapiens) (UniProt Q13164)
Mitogen-activated protein kinase 7 (Homo sapiens), sequence (Q13164 2-816 limits assumed): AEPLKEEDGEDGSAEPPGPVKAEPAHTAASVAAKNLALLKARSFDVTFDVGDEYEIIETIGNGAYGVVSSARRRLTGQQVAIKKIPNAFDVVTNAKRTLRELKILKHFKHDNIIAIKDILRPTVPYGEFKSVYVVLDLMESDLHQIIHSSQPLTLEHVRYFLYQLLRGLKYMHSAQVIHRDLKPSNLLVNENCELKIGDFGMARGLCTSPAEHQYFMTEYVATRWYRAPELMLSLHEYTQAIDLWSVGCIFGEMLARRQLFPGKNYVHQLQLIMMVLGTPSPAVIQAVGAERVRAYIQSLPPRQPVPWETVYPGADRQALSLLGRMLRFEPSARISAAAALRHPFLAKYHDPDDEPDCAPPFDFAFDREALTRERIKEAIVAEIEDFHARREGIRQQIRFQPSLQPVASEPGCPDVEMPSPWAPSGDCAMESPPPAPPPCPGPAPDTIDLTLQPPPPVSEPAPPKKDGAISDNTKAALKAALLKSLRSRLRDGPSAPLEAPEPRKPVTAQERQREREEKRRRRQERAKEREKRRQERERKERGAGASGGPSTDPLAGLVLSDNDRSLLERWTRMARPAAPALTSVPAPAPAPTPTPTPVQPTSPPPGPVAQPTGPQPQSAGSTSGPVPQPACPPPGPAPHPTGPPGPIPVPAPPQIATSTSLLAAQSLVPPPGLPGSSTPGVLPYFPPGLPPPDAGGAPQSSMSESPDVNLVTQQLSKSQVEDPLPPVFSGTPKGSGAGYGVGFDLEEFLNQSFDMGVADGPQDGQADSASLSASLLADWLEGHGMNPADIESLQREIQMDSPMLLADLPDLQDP

[15] = system: Fibroblast growth factor receptor 3 (Homo sapiens), P22607 [G697C]
[16] = system: Receptor-type tyrosine-protein kinase FLT3 (Homo sapiens), P36888 [UNDEFINED MUTATION]
[17] = target: Rhodopsin kinase GRK1 (Homo sapiens) (UniProt Q15835)
[18] = target: Homeodomain-interacting protein kinase 1 (Homo sapiens) (UniProt Q86Z02)
[19] = target: Tyrosine-protein kinase JAK2 (Homo sapiens) (UniProt O60674)
[20] = system: Mast/stem cell growth factor receptor Kit (Homo sapiens), P10721 [A829P]
Mast/stem cell growth factor receptor Kit (Homo sapiens), P10721 [A829P], sequence (P10721 whole entry A829P): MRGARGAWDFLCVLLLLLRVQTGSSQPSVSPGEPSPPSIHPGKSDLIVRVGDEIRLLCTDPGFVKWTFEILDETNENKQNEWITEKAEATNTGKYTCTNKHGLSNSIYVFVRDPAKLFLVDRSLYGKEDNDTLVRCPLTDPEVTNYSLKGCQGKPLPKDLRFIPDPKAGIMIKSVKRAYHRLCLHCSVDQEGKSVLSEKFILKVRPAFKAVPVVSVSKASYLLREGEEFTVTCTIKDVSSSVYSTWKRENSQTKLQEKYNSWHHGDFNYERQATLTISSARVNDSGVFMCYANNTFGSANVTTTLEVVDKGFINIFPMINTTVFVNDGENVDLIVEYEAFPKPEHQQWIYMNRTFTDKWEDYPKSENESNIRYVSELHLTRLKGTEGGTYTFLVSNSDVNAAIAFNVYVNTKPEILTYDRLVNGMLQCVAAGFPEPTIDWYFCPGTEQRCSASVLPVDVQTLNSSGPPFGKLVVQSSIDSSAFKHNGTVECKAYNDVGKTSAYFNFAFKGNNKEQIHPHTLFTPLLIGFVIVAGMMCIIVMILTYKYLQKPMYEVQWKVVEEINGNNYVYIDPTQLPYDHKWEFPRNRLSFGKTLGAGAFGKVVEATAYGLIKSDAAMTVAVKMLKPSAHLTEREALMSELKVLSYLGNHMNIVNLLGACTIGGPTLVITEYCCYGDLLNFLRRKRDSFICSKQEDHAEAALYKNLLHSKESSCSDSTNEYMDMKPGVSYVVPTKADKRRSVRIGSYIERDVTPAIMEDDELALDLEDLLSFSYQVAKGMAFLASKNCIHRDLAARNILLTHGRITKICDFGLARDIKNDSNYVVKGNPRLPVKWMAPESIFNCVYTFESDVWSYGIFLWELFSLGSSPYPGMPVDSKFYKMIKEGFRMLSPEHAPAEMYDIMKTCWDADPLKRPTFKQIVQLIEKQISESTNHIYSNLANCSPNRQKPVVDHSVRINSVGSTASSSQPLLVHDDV

[21] = system: Mast/stem cell growth factor receptor Kit (Homo sapiens), P10721 [V559D]
Mast/stem cell growth factor receptor Kit (Homo sapiens), P10721 [V559D], sequence (P10721 whole entry V559D): as the sequence (P10721 whole entry A829P) above, with V559D, P829A counted along it

[22] = system: Leucine-rich repeat serine/threonine-protein kinase 2 (Homo sapiens), Q5S007 [G2019S]
[23] = target: Mitogen-activated protein kinase kinase kinase 1 (Homo sapiens) (UniProt Q13233)
Mitogen-activated protein kinase kinase kinase 1 (Homo sapiens), sequence (Q13233 whole entry): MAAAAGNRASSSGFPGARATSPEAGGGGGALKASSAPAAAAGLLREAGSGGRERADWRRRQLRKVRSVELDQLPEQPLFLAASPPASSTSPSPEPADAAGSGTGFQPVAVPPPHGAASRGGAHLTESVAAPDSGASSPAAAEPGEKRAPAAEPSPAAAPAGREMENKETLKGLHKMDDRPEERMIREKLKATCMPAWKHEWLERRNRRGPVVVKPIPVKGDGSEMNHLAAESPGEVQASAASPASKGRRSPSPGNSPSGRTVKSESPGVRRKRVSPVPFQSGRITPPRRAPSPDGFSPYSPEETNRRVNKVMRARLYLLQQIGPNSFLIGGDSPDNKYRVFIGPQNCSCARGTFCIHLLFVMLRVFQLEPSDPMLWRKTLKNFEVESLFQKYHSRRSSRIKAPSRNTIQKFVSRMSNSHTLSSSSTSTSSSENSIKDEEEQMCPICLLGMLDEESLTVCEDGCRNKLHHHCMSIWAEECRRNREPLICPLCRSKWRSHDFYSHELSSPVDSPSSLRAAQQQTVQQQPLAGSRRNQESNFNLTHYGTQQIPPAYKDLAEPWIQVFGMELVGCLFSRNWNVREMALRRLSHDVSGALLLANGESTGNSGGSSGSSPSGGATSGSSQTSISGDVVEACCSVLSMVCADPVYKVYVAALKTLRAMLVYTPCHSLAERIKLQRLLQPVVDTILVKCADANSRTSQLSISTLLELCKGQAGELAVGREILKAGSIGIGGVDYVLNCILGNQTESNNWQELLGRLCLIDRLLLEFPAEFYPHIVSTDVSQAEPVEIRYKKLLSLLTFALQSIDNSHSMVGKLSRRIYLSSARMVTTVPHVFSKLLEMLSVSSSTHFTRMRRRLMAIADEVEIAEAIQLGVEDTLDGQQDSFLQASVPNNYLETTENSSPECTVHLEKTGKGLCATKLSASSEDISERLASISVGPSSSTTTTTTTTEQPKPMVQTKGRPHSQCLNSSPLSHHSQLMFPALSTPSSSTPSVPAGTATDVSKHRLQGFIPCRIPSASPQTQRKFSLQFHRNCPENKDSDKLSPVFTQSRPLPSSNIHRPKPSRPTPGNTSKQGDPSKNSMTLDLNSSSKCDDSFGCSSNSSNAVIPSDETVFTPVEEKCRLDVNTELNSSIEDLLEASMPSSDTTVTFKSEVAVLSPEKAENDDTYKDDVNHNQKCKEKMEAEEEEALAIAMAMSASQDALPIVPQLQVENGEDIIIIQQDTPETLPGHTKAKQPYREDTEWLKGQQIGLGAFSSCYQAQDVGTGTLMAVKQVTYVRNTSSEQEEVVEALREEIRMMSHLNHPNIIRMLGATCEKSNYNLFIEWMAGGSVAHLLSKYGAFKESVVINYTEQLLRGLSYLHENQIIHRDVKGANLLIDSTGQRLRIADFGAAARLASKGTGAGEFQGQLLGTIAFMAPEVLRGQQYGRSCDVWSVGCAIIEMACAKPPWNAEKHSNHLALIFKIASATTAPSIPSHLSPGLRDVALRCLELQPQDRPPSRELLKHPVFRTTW

[24] = system: Hepatocyte growth factor receptor (Homo sapiens), P08581 [M1250T]
[25] = target: Serine/threonine-protein kinase 26 (Homo sapiens) (UniProt Q9P289)
[26] = target: Myosin-IIIa (Homo sapiens) (UniProt Q8NEV4)
[27] = target: Serine/threonine-protein kinase 38 (Homo sapiens) (UniProt Q15208)
[28] = target: Serine/threonine-protein kinase Nek5 (Homo sapiens) (UniProt Q6P3R8)
Serine/threonine-protein kinase Nek5 (Homo sapiens), sequence (Q6P3R8 whole entry): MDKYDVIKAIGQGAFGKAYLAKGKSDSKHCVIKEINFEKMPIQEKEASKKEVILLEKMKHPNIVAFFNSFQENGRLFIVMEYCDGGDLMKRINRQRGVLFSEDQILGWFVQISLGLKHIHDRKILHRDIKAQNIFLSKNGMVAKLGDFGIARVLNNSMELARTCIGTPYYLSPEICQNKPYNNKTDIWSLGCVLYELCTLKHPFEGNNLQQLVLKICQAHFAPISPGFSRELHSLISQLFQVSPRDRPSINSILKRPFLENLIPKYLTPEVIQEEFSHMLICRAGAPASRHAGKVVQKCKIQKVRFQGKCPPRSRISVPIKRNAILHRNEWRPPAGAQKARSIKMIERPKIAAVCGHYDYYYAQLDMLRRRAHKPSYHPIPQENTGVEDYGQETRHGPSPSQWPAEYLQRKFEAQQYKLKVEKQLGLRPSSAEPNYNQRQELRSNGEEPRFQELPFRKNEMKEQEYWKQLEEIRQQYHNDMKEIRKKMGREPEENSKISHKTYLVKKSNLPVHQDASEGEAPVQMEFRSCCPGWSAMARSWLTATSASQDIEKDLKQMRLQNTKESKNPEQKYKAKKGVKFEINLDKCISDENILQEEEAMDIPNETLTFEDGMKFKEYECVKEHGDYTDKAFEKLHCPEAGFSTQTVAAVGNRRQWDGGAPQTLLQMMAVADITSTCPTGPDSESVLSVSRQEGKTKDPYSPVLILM

[29] = target: Serine/threonine-protein kinase Nek7 (Homo sapiens) (UniProt Q8TDX7)
[30] = target: Serine/threonine-protein kinase OSR1 (Homo sapiens) (UniProt O95747)
[31] = target: Serine/threonine-protein kinase PAK 2 (Homo sapiens) (UniProt Q13177)
[32] = target: Serine/threonine-protein kinase PAK 4 (Homo sapiens) (UniProt O96013)
[33] = system: Phosphatidylinositol 4,5-bisphosphate 3-kinase catalytic subunit alpha isoform (Homo sapiens), P42336 [H1047L]
[34] = target: 1-phosphatidylinositol 3-phosphate 5-kinase (Homo sapiens) (UniProt Q9Y2I7)
[35] = target: Serine/threonine-protein kinase pim-2 (Homo sapiens) (UniProt Q9P1W9)
[36] = target: Phosphatidylinositol 4-phosphate 5-kinase type-1 alpha (Homo sapiens) (UniProt Q99755)
[37] = target: Protein-tyrosine kinase 2-beta (Homo sapiens, UniProt Q14289)
[38] = target: Serine/threonine-protein kinase RIO3 (Homo sapiens) (UniProt O14730)
[39] = target: Proto-oncogene tyrosine-protein kinase ROS (Homo sapiens) (UniProt P08922)
[40] = target: Serine/threonine-protein kinase Sgk3 (Homo sapiens) (UniProt Q96BR1)
[41] = target: Activated CDC42 kinase 1 (Homo sapiens) (UniProt Q07912)
[42] = target: Transient receptor potential cation channel subfamily M member 6 (Homo sapiens) (UniProt Q9BX84)
[43] = target: Testis-specific serine/threonine-protein kinase 3 (Homo sapiens) (UniProt Q96PN8)
[44] = target: 5-hydroxytryptamine receptor 5A (Homo sapiens) (UniProt P47898); conditions: Compound concentration 10.0 uM
5-hydroxytryptamine receptor 5A (Homo sapiens), sequence (P47898 whole entry): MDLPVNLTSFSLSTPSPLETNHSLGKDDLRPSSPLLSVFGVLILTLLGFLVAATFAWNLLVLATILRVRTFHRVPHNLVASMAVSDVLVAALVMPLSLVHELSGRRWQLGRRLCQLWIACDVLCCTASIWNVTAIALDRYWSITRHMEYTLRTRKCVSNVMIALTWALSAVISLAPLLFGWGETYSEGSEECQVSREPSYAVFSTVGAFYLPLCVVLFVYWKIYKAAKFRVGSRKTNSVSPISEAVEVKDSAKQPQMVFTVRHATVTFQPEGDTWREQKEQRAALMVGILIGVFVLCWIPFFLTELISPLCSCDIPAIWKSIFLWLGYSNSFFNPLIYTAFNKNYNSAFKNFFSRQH

[45] = Compound concentration 100.0 nM
[46] = Compound concentration 1000.0 nM

For `CNC(=O)c1ccc(Nc2ncc(C(F)(F)F)c(NCc3nccnc3N(C)S(C)(=O)=O)n2)cc1` [DEFACTINIB], the residual activity [1, 45] was 98%, the residual activity [2, 45] was 100% and the residual activity [3, 45] was 74%. For the same compound, the residual activity [4, 45] was 100%, the residual activity [5, 45] was 79% and the residual activity [6, 45] was 0%. For the same compound, the residual activity [7, 45] was 100%, the residual activity [8, 45] was 99% and the residual activity [9, 45] was 83%. It also gave a residual activity [10, 45] of 79%, a residual activity [11, 45] of 82% and a residual activity [12, 45] of 85%. For the same compound, the residual activity [13, 45] was 87%, the residual activity [14, 45] was 87% and the residual activity [15, 45] was 100%. For the same compound, the residual activity [16, 45] was 26%, the residual activity [17, 45] was 99% and the residual activity [18, 45] was 27%. It also gave a residual activity [19, 45] of 4.8%, a residual activity [20, 45] of 85% and a residual activity [21, 45] of 92%. For the same compound, the residual activity [22, 45] was 65%, the residual activity [23, 45] was 100% and the residual activity [24, 45] was 63%. It also gave a residual activity [25, 45] of 95%, a residual activity [26, 45] of 100% and a residual activity [27, 45] of 86%. It also gave a residual activity [28, 45] of 100%, a residual activity [29, 45] of 70% and a residual activity [30, 45] of 100%. It also gave a residual activity [31, 45] of 72%, a residual activity [32, 45] of 58% and a residual activity [33, 45] of 32%. The residual activity [34, 45] was 100%, the residual activity [35, 45] was 100% and the residual activity [36, 45] was 98%. The residual activity [37, 45] was 8.3%, the residual activity [38, 45] was 55% and the residual activity [39, 45] was 58%. It also gave a residual activity [40, 45] of 85%, a residual activity [41, 45] of 100% and a residual activity [42, 45] of 98%. It also gave a residual activity [43, 45] of 77% and an inhibition [44] of -1.91%.
In the case of `CN(c1ccnc(CNc2nc(Nc3ccc4c(c3)CC(=O)N4)ncc2C(F)(F)F)n1)S(C)(=O)=O` [PF-00911705], the residual activity [1, 46] is reported as 79%, the residual activity [2, 46] is reported as 100% and the residual activity [3, 46] is reported as 77%. The residual activity [4, 46] was 91%, the residual activity [5, 46] was 100% and the residual activity [6, 46] was 0%. The residual activity [7, 46] was 100%, the residual activity [8, 46] was 57% and the residual activity [9, 46] was 48%. The residual activity [10, 46] was 31%, the residual activity [11, 46] was 57% and the residual activity [12, 46] was 87%. For the same compound, the residual activity [13, 46] was 99%, the residual activity [14, 46] was 78% and the residual activity [15, 46] was 89%. The residual activity [16, 46] was 5.5%, the residual activity [17, 46] was 74% and the residual activity [18, 46] was 45%. For the same compound, the residual activity [19, 46] was 3.8%, the residual activity [20, 46] was 46% and the residual activity [21, 46] was 75%. It also gave a residual activity [22, 46] of 7.3%, a residual activity [23, 46] of 49% and a residual activity [24, 46] of 6.8%. For the same compound, the residual activity [25, 46] was 46%, the residual activity [26, 46] was 100% and the residual activity [27, 46] was 65%. The residual activity [28, 46] was 63%, the residual activity [29, 46] was 68% and the residual activity [30, 46] was 86%. For the same compound, the residual activity [31, 46] was 83%, the residual activity [32, 46] was 52% and the residual activity [33, 46] was 92%. It also gave a residual activity [34, 46] of 100%, a residual activity [35, 46] of 100% and a residual activity [36, 46] of 12%. For the same compound, the residual activity [37, 46] was 59%, the residual activity [38, 46] was 8.5% and the residual activity [39, 46] was 43%. The residual activity [40, 46] was 87%, the residual activity [41, 46] was 86% and the residual activity [42, 46] was 86%. It also gave a residual activity [43, 46] of 80% and an inhibition [44] of 1.82%.
